Laboratory results reported in US12263349B2, “Method of treatment of biological surfaces” (Koite Health Oy, priority 2018, dated 2025).
Entries after “also recorded” stand apart in the source; their conditions may differ.

Key:
[1] = tested on: Streptococcus mutans biofilm; assay: Streptococcus mutans monospecies biofilm model, PDT with indocyanine green, viability by serial dilution CFU; type: cell-based, Streptococcus mutans (ATCC 25175)
Experimental: In a third series of test, the adaptability of Streptococcus mutans biofilms to multi and single wavelength PDT treatments, respectively, was compared.
Two separate monospecies biofilm model experiments were performed to study the effect of reoccurring photodynamic therapy on biofilm formation. The Streptococcus mutans biofilm experiments were divided in different classes based on biofilm age and the therapy given.
The one-time PDT treatment was performed for 1 day, 2 days and 4 days old biofilms. […] The viability of the bacteria was assessed by serial dilution CFU method which was performed after the last photodynamic therapy treatment.
Streptococcus mutans (ATCC 25175) bacteria was grown over 18 h in growth chamber (36° C., 5% CO2) in BHI-broth (Bio-Rad 3564014). The resulting bacteria suspension was diluted with 0.9% NaCl suspension to optical density of 0.46.
Biofilm was grown on bottom of well plate by adding 100 μl diluted Streptococcus mutans suspension in each well with 100 μl of BHI-broth growth medium. The bacteria plate was incubated in growth chamber (36 Celsius, 5% CO2) and BHI-broth medium changed daily.
Before the light exposure, the growth medium was replaced with indocyanine green suspension which was let to incubate in dark in room temperature for 10 minutes. After the incubation the biofilm was washed twice with 0.9% NaCl solution. The treatment time was calculated from desired light amount and known intensity.
The light exposure was performed by placing the well plate under known LED light source. The given light intensity was analyzed with Thorlabs PM100D and S121C sensor head. Treatment time was changed to result in desired light amount. […]
The first experiment of continuous treatment of Streptococcus biofilm with PDT was completed by using 250 μg/ml ICG with 810 nm light. Different age biofilms of 1 day, 2 days and 4 days were grown, and the treatment was given once to each biofilm to evaluated the effect of single time treatment to differently aged biofilms. […]

Streptococcus mutans = assay: Bacteria plate study: antibacterial effect of 405 nm light compared to PDT; type: cell-based; conditions: FIG. 6
[2] = tested on: Streptococcus mutans biofilm; assay: Potentiation of chlorhexidine with dual wavelength PDT; type: cell-based; conditions: high and low energy photons with photosensitizer; FIG. 3
Source text: Treatment can be combined with topic use of antibiotics and disinfectants for synergist antipathogen effect. For example, the use phototherapy with chlorhexidine to target biofilms is new to oral disinfection. The results of dual wavelength photodynamic therapy with chlorhexidine against Streptococcus mutans biofilm shown in appendix III are completely new. […] The effectivity is based on photon and anionic photosensitizer ability to penetrate deeper into biofilm and provide efficient bacteria killing inside the biofilm as well as on the surface. The chlorhexidine effect is mostly present only on the surface of the biofilm. High energy photons reduce the biofilm EPS matrix formation that further increases the chlorhexidine effectivity in subsequent treatments. In a second series of tests, potentiation of chlorhexidine with dual wavelength PDT was evaluated.

[3] = tested on: monospecies biofilm of Streptococcus sobrinus; conditions: biofilm versus planktonic form; cited from earlier work

| Molecule | effect of PDT treatment on biofilm (CFU), every day treated ([1]; 250 μg/ml ICG with 810 nm light (single wavelength), 4 days old biofilm treated every day) | effect of PDT treatment on biofilm (CFU), treatment given once ([1]; 250 μg/ml ICG with 810 nm light, single treatment of 1 day, 2 days and 4 days old biofilms) | bacteria killing with double wavelength PDT, every day therapy versus day 4 only ([1]; ICG, 810 nm combined with 405 nm light, 4 days old biofilm) | light dose resulting in complete inhibition of Streptococcus mutans growth (Streptococcus mutans) | antimicrobial effect of chlorhexidine combined with multi wavelength PDT versus reference and one wavelength [2] | times greater concentration needed to kill biofilm than planktonic counterpart [3] |
| --- | --- | --- | --- | --- | --- | --- |
| CC1(C)C(/C=C/C=C/C=C/C=C2\N(CCCCS(=O)(=O)O)c3ccc4ccccc4c3C2(C)C)=[N+](CCCCS(=O)(=O)[O-])c2ccc3ccccc3c21 [ICG, Indocyanine green] | poor treatment effect; also recorded: failed to achieve strong bacteria killing | strong effect of PDT treatment | No significant difference of bacteria killing; also recorded: no bacteria biofilm adaptation to the treatment was observed | 4 J/cm^2 |  |  |
| [H]/N=C(\N/C(=N/[H])NCCCCCCNC(=N)NC(=N)Nc1ccc(Cl)cc1)Nc1ccc(Cl)cc1 [chlorhexidine] |  |  |  |  | increased substantially the antibacterial effect; also recorded: much stronger effect | 100 |
| amine fluoride |  |  |  |  |  | 100 |
